In patent publication US20230348369A1 (Cytokinetics, Inc., priority 2020, published 2023):
Like-named read-outs stand apart in the source and are kept apart here.

Biological target: human NAMPT (Homo sapiens, UniProt P43490)
Test: Human recombinant enzyme assay (NMN fluorescence biochemical assay, activation of NAMPT)
Procedure, shortened: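 NMN production is detected fluorometrically (Ex 355/Em 460 nm) 40 min after acetophenone, KOH and formic acid derivatization. Reactions ran 60 min at ambient temperature: 6 nM human NAMPT, nicotinamide 150 μM, PRPP 20 μM, ATP 2.5 mM, buffered at pH 7.2 with 50 mM HEPES plus DTT, CHAPS, NaCl and 100 mM MgCl2.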

[1] = Table A, human recombinant NAMPT, NMN formation, 60 min
[2] = Table A, human recombinant NAMPT, NMN formation, 60 min, read-out: EC50 Human

human NAMPT, sequence (P43490 whole entry): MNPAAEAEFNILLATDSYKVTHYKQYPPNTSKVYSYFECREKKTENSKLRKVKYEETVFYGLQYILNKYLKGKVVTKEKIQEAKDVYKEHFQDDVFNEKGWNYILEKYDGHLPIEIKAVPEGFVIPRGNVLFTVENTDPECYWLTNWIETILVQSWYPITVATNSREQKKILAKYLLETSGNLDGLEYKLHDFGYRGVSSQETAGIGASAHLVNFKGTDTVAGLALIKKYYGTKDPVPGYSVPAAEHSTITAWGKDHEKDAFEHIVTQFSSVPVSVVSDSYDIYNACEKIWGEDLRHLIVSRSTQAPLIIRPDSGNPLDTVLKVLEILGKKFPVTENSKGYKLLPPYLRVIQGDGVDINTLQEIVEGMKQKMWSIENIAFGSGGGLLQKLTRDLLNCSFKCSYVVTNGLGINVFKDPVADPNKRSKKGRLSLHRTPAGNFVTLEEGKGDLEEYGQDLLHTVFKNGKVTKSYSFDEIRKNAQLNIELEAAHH

| SMILES | EC50 | AC1.4 Human [1] | EC50 [2] | EC50 (read-out: EC50 Human, Table A, human recombinant NAMPT, NMN formation, 60 min) |
| --- | --- | --- | --- | --- |
| CC(C)(O)CN1CCN(C(=O)[C@H]2C[C@]3(C[C@H](NC(=O)NCc4ccc(Cl)cc4)C3)C2)CC1 (single isomer, unassigned) [Compound 182] | 20.5 µM | – | – | – |
| COC(=O)c1cccc(C(=O)N2CC3(CC(NC(=O)NCc4ccc(OC)cc4)C3)C2)c1 [Compound 181, methyl 3-(6-(3-(4-methoxybenzyl)ureido)-2-azaspiro[3.3]heptane-2-carbonyl)benzoate] | – | 3.0 µM | 29.7 µM | – |
| COc1ccc(CNC(=O)NC2CC3(C2)CC(C(=O)N[C@H](CO)c2ccccc2)C3)cc1 (stereo partly drawn) [Compound 46, (S)-N-(2-hydroxy-1-phenylethyl)-6-(3-(4-methoxybenzyl)ureido)spiro[3.3]heptane-2-carboxamide] | – | 6.8 µM | 41.3 µM | – |
| CC(C)(C)OC(=O)N1CCC2(CC1)CC2CNC(=O)NCc1ccncc1 (stereo not drawn) [Compound 25, tert-butyl 1-((3-(pyridin-4-ylmethyl)ureido)methyl)-6-azaspiro[2.5]octane-6-carboxylate] | – | 5.0 µM | 27.4 µM | – |
| O=C(NCCCCC1CCN(C(=O)c2ccncc2)CC1)NCc1ccc(Cl)cc1 [Compound 290, 1-(4-chlorobenzyl)-3-(4-(1-isonicotinoylpiperidin-4-yl)butyl)urea] | – | 1.3 µM | 6.2 µM | – |
| CC(C1CC2(CC(NC(=O)NCc3ccc(Cl)cc3)C2)C1)N1CCN(C)C(=O)C1 (stereo not drawn) [Compound 253, 1-(4-chlorobenzyl)-3-(6-(1-(4-methyl-3-oxopiperazin-1-yl)ethyl)spiro[3.3]heptan-2-yl)urea] | – | 3.2 µM | 5.5 µM | – |
| CN(C(=O)CCCCCNC(=O)NCc1ccc(Cl)cc1)c1ccccn1 [Compound 271, 6-(3-(4-chlorobenzyl)ureido)-N-methyl-N-(pyridin-2-yl)hexanamide] | – | 0.9 µM | 3.7 µM | – |
| COc1ccc(CNC(=O)NC2CC3(C2)CC(OCc2ccncc2)C3)cc1 (stereo not drawn) [Compound 349, 1-(4-methoxybenzyl)-3-(6-(pyridin-4-ylmethoxy)spiro[3.3]heptan-2-yl)urea] | – | 6.9 µM | 40.3 µM | – |
| CC(C)(C(=O)N1CC2(CC(NC(=O)NCc3ccc(Cl)cc3)C2)C1)c1ccccc1 [Compound 221, 1-(4-chlorobenzyl)-3-(2-(2-methyl-2-phenylpropanoyl)-2-azaspiro[3.3]heptan-6-yl)urea] | 4.6 µM | 1.1 µM | – | – |
| COc1ccc(CNC(=O)NC2CC3(C2)CC(C(=O)N2CCC(c4ccccc4)C2)C3)cc1 (stereo not drawn) [Compound 57, 1-(4-methoxybenzyl)-3-(6-(3-phenylpyrrolidine-1-carbonyl)spiro[3.3]heptan-2-yl)urea] | – | 1.0 µM | 25.8 µM | – |
| COc1ccc(CNC(=O)NC2CC3(C2)CC(C(=O)N2CCCc4cc(OC(F)F)ccc42)C3)cc1 (stereo not drawn) [Compound 103, 1-(6-(6-(difluoromethoxy)-1,2,3,4-tetrahydroquinoline-1-carbonyl)spiro[3.3]heptan-2-yl)-3-(4-methoxybenzyl)urea] | – | 0.3 µM | 7 µM | – |
| COc1ccc(CNC(=O)NC2CC3(C2)CN(C(=O)Cc2ccccc2F)C3)cc1 [Compound 38, 1-(2-(2-(2-fluorophenyl)acetyl)-2-azaspiro[3.3]heptan-6-yl)-3-(4-methoxybenzyl)urea] | 43.7 µM | 13.7 µM | – | – |
| CC(C)c1cccc(C(=O)N2CC[C@]3(C2)C[C@@H](NC(=O)NCc2ccc(Cl)cc2)C3)c1 [Compound 169, 1-(4-chlorobenzyl)-3-((2r,4s)-6-(3-isopropylbenzoyl)-6-azaspiro[3.4]octan-2-yl)urea] | – | 7.1 µM | 9.3 µM | – |
| Cc1ccccc1C(=O)NC1CC2(CC(NC(=O)NCc3ccc(Cl)cc3)C2)C1 (stereo not drawn) [Compound 193, N-(6-(3-(4-chlorobenzyl)ureido)spiro[3.3]heptan-2-yl)-2-methylbenzamide] | – | 3.6 µM | 14.6 µM | – |
| O=C(NCCCCC1CCN(C(=O)c2ccccc2C(F)F)CC1)NCc1ccc(Cl)cc1 [Compound 314, 1-(4-chlorobenzyl)-3-(4-(1-(2-(difluoromethyl)benzoyl)piperidin-4-yl)butyl)urea] | – | 0.5 µM | 0.7 µM | – |
| CC(C)(C)OC(=O)NC1CC2(CC(NC(=O)NCc3cnco3)C2)C1 (stereo not drawn) [Compound 11, tert-butyl (6-(3-(oxazol-5-ylmethyl)ureido)spiro[3.3]heptan-2-yl)carbamate] | – | 11.5 µM | – | – |
| COc1ccc(CNC(=O)NC2CC3(C2)CC(c2nc4ccccc4o2)C3)cc1 (stereo not drawn) [Compound 327, 1-(6-(benzo[d]oxazol-2-yl)spiro[3.3]heptan-2-yl)-3-(4-methoxybenzyl)urea] | 17.4 µM | 4.1 µM | – | – |

| SMILES | EC50 | AC1.4 Human [1] | EC50 [2] | EC50 (read-out: EC50 Human, Table A, human recombinant NAMPT, NMN formation, 60 min) |
| --- | --- | --- | --- | --- |
| O=C(NCCCCC1CCN(C(=O)c2ccccc2)CC1)NCc1ccncc1 [Compound 1, 1-(4-(1-benzoylpiperidin-4-yl)butyl)-3-(pyridin-4-ylmethyl)urea] | – | 0.1 µM | 0.8 µM | – |
| COc1ccc(CNC(=O)NC2CC3(C2)CC(C(=O)NCC(C)(C)c2ccccn2)C3)cc1 (stereo not drawn) [Compound 65, 6-(3-(4-methoxybenzyl)ureido)-N-(2-methyl-2-(pyridin-2-yl)propyl)spiro[3.3]heptane-2-carboxamide] | – | 2.6 µM | 50 µM | – |
| O=C(NCc1ccc(Cl)cc1)NC1CC2(C1)CC(NC(=O)c1ccccc1)C2 (stereo not drawn) [Compound 114, N-(6-(3-(4-chlorobenzyl)ureido)spiro[3.3]heptan-2-yl)benzamide] | – | 11.0 µM | 33.1 µM | – |
| COc1ccc(CNC(=O)N[C@H]2C[C@@]3(CCN(C(=O)OC(C)(C)C)C3)C2)cc1 [Compound 82, tert-butyl (2s,4r)-2-(3-(4-methoxybenzyl)ureido)-6-azaspiro[3.4]octane-6-carboxylate] | – | 10.7 µM | 52.3 µM | – |
| O=C(Cc1cccnc1)NCCCCCNC(=O)NCc1ccc(Cl)cc1 [Compound 283, N-(5-(3-(4-chlorobenzyl)ureido)pentyl)-2-(pyridin-3-yl)acetamide] | – | 8.6 µM | 32.8 µM | – |
| COc1ccc(CNC(=O)NC2CC3(C2)CN(S(=O)(=O)CCc2ccccc2Cl)C3)cc1 [Compound 118, 1-(2-((2-chlorophenethyl)sulfonyl)-2-azaspiro[3.3]heptan-6-yl)-3-(4-methoxybenzyl)urea] | – | 3.0 µM | 14.2 µM | – |
| COc1ccc(CNC(=O)NC2CC3(C2)CC(C(=O)N2CCCc4ccc(F)cc42)C3)cc1 (stereo not drawn) [Compound 106, 1-(6-(7-fluoro-1,2,3,4-tetrahydroquinoline-1-carbonyl)spiro[3.3]heptan-2-yl)-3-(4-methoxybenzyl)urea] | – | 0.1 µM | 1.8 µM | – |
| COc1ccc(CNC(=O)NC2CC3(C2)CC(C(=O)Nc2ccc4nncn4c2)C3)cc1 (stereo not drawn) [Compound 89, N-([1,2,4]triazolo[4,3-a]pyridin-6-yl)-6-(3-(4-methoxybenzyl)ureido)spiro[3.3]heptane-2-carboxamide] | – | 10.3 µM | 33.7 µM | – |
| NC(=O)c1ccc(CNC(=O)NC2CCN(C(=O)c3ccccc3)CC2)cc1 [Compound 13, 4-((3-(1-benzoylpiperidin-4-yl)ureido)methyl)benzamide] | – | 17.5 µM | – | – |
| COc1ccc(CNC(=O)N[C@H]2C[C@]3(CCN(C(=O)OC(C)(C)C)C3)C2)cc1 [Compound 81, tert-butyl (2r,4s)-2-(3-(4-methoxybenzyl)ureido)-6-azaspiro[3.4]octane-6-carboxylate] | – | 12.5 µM | 37.2 µM | – |
| COc1ccc(CNC(=O)NCCCCCC(=O)N(C)c2ccccc2F)cc1 [Compound 282, N-(2-fluorophenyl)-6-(3-(4-methoxybenzyl)ureido)-N-methylhexanamide] | – | 0.1 µM | 3.9 µM | – |
| O=C(NCc1ccc(Cl)cc1)NC1CC2(CC(CS(=O)(=O)c3cccnc3)C2)C1 (stereo not drawn) [Compound 353, 1-(4-chlorobenzyl)-3-(6-((pyridin-3-ylsulfonyl)methyl)spiro[3.3]heptan-2-yl)urea] | – | 5.3 µM | 16.9 µM | – |
| O=C(NCc1ccc(Cl)cc1)N[C@H]1C[C@]2(CCN(C(=O)c3ccc(F)cc3)C2)C1 [Compound 167, 1-(4-chlorobenzyl)-3-((2r,4s)-6-(4-fluorobenzoyl)-6-azaspiro[3.4]octan-2-yl)urea] | – | 11.8 µM | 27.5 µM | – |
| COC(=O)C1CC2(CC(NC(=O)NCc3ccc(Cl)cc3)C2)C1 (stereo not drawn) [Compound 168, methyl 6-(3-(4-chlorobenzyl)ureido)spiro[3.3]heptane-2-carboxylate] | – | 9.5 µM | – | 39.3 µM |
| COc1ccc(CNC(=O)NC2CC3(CC(Cc4ccc(C)cc4)C3)C2)cc1 (stereo not drawn) [Compound 334, 1-(4-methoxybenzyl)-3-(6-(4-methylbenzyl)spiro[3.3]heptan-2-yl)urea] | – | 2.3 µM | 2.7 µM | – |
| O=C(NCc1ccc(Cl)cc1)NC1CC2(C1)CC(NC(=O)c1ccncc1)C2 (stereo not drawn) [Compound 185, N-(6-(3-(4-chlorobenzyl)ureido)spiro[3.3]heptan-2-yl)isonicotinamide] | – | 11.6 µM | 22 µM | – |
